Test results from patent US20190134004A1, “METHODS AND COMPOSITIONS FOR TREATING BREAST AND PROSTATE CANCER” (The University of Chicago, priority 2016, published 2019).
“Also recorded” adds a separate entry of the source.

How the values were obtained:
GR binding sites = assay: GR ChIP-seq in LAPC4 cells after addition of dexamethasone; format: cell-based, human
From the text: The inventors recently discovered that within PC cells, activated GR can compensate transcriptionally for a large set of genes. […] In a companion experiment using chromatin immunoprecipitation followed by deep sequeicing (ChIP-seq) in LAPC4 cells, the addition of dexamethasone to activate the GR leads to ˜700 new unique GR binding sites, approximately 70 of these new sites are within 5 kilobase (kb) of the transctiption start site of known genes. This argues that the majority of GR chromatin binding and subsequent gene regulation is through regulation at more distant enhancer sites rather then through direct promoter site binding. As bromodomain proteins such as BRD4 cooperate with known transcription factors, including the GR, at such enhancers to enable gene regulation, the inventors sought to establish whether BRD4 and GR cooperate to regulate pro-survival genes in Enza-R CRPC.

LNCaP-EnzaR cells = assay: Cell viability of LNCaP-EnzaR cells treated with R1881, enzalutamide, Dex with or without JQ1; format: cell-based, human; settings: 3 days
Method: FIG. 3. […] LNCaP-EnzR cells were treated for three days of R1881 and enzalutamide (RE), concurrently with vehicle, Dex (D) or D+JQ1. Error bars=standard error of mean. The bars, from left to right, correspond to RE, RED, and RED-JQ 1.
BET-inhibition decreases Enza-R survival in vitro despite dexamethasone. It has been reported that the BET inhibitor JQ1 (100-500 nM) can decrease Enza-R cell survival, potentially through inhibition of ligand independent AR splice variants.

[1] = test system: GR (NR3C1) target gene expression; assay: Dex-mediated GR target gene expression (KLK3, SGK1, FKBP5) with BET inhibition in LNCaP-EnzR cells; format: cell-based, human; settings: three days R1881 and enzalutamide, then Dex or Dex+JQ1, relative to RE, p<0.05
Method: FIG. 2. Dex-mediated GR (NR3C1) target gene expression decreased with BETinhibition. LNCaP-EnzR cells were treated for three days of R1881 and enzalutamide (RE), after which cells stimulated with Dex (D) or Dex+JQ1. All conditions relative to RE. Changes all significant p<0.05 with no change in GR expression across conditions. Each series of bars from left to right corresponds to data from RE, RED, and RED-JQl.
The inventors have also verified that the principal BET-BRD proteins inhibited by a BET inhibitor (ABT-075), BRD4 and BRD3 are expressed within the Enza-R CRPC cell lines. […] It was next sought to explore whether for specific, known GR-regulated in PC cells genes (KLK3, SGK1, FKBPS) the BET inhibitor tool compound JQ1 was able to decrease GR mediated gene expression.

Enza-R cells = settings: JQ1 100-500 nM; reported; cited from earlier work

Row | SMILES | new unique GR binding sites (GR binding sites) | viable cell numbers (LNCaP-EnzaR cells; dexamethasone 100 nM with R1881 1 nM and enzalutamide 10 μM) | GR mediated gene expression (KLK3, SGK1, FKBPS) [1] | viable cell numbers (Dex-mediated cell viability) (LNCaP-EnzaR cells; JQ1 500 nM with dexamethasone 100 nM, R1881 1 nM, enzalutamide 10 μM) | Enza-R cell survival (Enza-R cells)
1 | C[C@@H]1C[C@H]2[C@@H]3CCC4=CC(=O)C=C[C@]4(C)[C@@]3(F)[C@@H](O)C[C@]2(C)[C@@]1(O)C(=O)CO [Dex, dexamethasone] | ~700 | increases |  |  | 
2 | Cc1sc2c(c1C)C(c1ccc(Cl)cc1)=N[C@@H](CC(=O)OC(C)(C)C)c1nnc(C)n1-2 [JQ1] |  |  | significantly countered; also recorded: decreased | significantly decreased | can decrease
